Experimental data: patent publication US20040209956A1 (priority 2003, published 2004)

Experiments:
Format in all cases: physicochemical
[1] = Solubility of Form II in acetonitrile/ethanol 3A mixtures; settings: equilibrated nineteen days; for Solubility, 70/30 ACN/EtOH 3A wt. % S-[2-[(1-Iminoethyl)amino]ethyl]-2-methyl-L-cysteine: 70/30 v/v acetonitrile/ethanol 3A; for Solubility, 90/10 ACN/EtOH 3A wt. % S-[2-[(1-Iminoethyl)amino]ethyl]-2-methyl-L-cysteine: 90/10 v/v acetonitrile/ethanol 3A
From the text: Excess solids were equilibrated in these solvents at the appropriate temperature (in a shaker bath) for nineteen days. Supernatant samples were withdrawn and analyzed by HPLC for concentration of S-[2-[(1-Iminoethyl)amino]ethyl]-2-methyl-L-cysteine.

[2] = Solubility experiments in acetonitrile/water with and without excess maleic acid; settings: 90/10 acetonitrile/water with excess maleic acid; nineteen days at 5° C.; slurry in single liquid phase, solids form II
Protocol: These vials were then placed in a shaker bath at 5° C. After four days of equilibration when the vials were observed, it was discovered that the system had turned from a suspension of solids in a single liquid phase to a biphasic liquid with no suspended solids. Both layers from each of the three vials were analyzed for water content (through Karl-Fischer analysis) and concentration of the compound. […] It is worth pointing out though that the exact conditions leading to measured concentrations in the top layer could only be truly established when the partitioning of excess maleic acid is established between the two layers. The bottom layer (rich in water) would most likely be under-saturated since no excess solids remained. This possibility is substantiated by the solubility data on the bottom layer, where the concentrations are found to be very similar across all the experiments. While the vial at 70/30 acetonitrile/water with excess maleic acid remained biphasic even after nineteen days, the 70/30 acetonitrile/water vial without any excess maleic acid after five days had some very large crystals floating in a solution that still seemed biphasic. […] These crystals were used to obtain crystallography data. After nineteen days of equilibration at 5° C., the 90/10 acetonitrile/water vial with excess maleic acid had turned back into a slurry of solids in a single liquid phase.

[3] = Moisture sorption of Form II by DVS moisture balance; settings: 25° C.
From the text: However, the solids re-hydrate equally easily when exposed to R.H. greater than 10%. […] The behavior of form II during this experiment was typical of a highly crystalline channel hydrate/solvate.

- Solubility, 70/30 ACN/EtOH 3A wt. % S-[2-[(1-Iminoethyl)amino]ethyl]-2-methyl-L-cysteine ([1]; 5 ° C.): 0.679 wt. %
- Solubility, 70/30 ACN/EtOH 3A wt. % S-[2-[(1-Iminoethyl)amino]ethyl]-2-methyl-L-cysteine ([1]; 25 ° C.): 0.737 wt. %
- Solubility, 90/10 ACN/EtOH 3A wt. % S-[2-[(1-Iminoethyl)amino]ethyl]-2-methyl-L-cysteine ([1]; 5 ° C.): 0.169 wt. %
- Solubility, 90/10 ACN/EtOH 3A wt. % S-[2-[(1-Iminoethyl)amino]ethyl]-2-methyl-L-cysteine ([1]; 25 ° C.): 0.135 wt. %
- Concentration in the solution phase, S-[2-[(1-Iminoethyl)amino]ethyl]-2-methyl-L-cysteine [2]: 0.613 wt %
- Moisture gain ([3]; between 10 and 70% R.H.): ~2.5%
- Moisture gain ([3]; between 70 and 90% R.H.): ~4.5%
Substance: S-[2-[(1-Iminoethyl)amino]ethyl]-2-methyl-L-cysteine maleate crystalline salt Form II
- Cycling between sorption and de-sorption cycles ([3]; DVS moisture balance): did not show any hysteresis or loss of crystallinity
